For experiment [1], the system named is HSV-1. Description: HSV Antiviral (ELISA) Assay in Vero cells. The experiment is classed as cell-based, herpes simplex virus type 1. To be noted: HSV-1, Vero cells. The method, boiled down: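 Viral replication was quantified by cell-fixed ELISA for HSV glycoprotein D, using a β-galactosidase reporter and fluorogenic umbelliferyl substrate, about 24 h after HSV-1 infection (MOI 0.006) of Vero cells. Compounds, at several concentrations, were added 30 min pre-infection. IC50 was derived from fluorescence relative to the compound-free signal.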
For orientation: An ELISA detects its analyte on a solid surface through an enzyme-linked reagent.

Experiment [2] deals with HCMV recombinant mutant virus (RV145). Description: microbe, parasite or virus in culture. Type of experiment: cell-based, human cytomegalovirus. An excerpt:
Microtiter plate assay. Ninety-six well plate cultures of human foreskin fibroblasts are infected in the presence of inhibitor compound with a HCMV recombinant mutant virus whose genome contains the prokaryotic beta-glucuronidase gene (Jefferson, R. A., S. M. Burgess, and D. Hirsh. 1986. Beta-glucuronidase from Escherichia coli as a gene fusion marker. Proc. Natl. Acad. Sci. USA 83:8447-8451) whose expression is controlled by a viral promoter. An example of such a virus is RV145 (Jones, T. R., V. P. Muzithras, and Y. Gluzman. 1991. Replacement mutagenesis of the human cytomegalovirus genome: US10 and US11 gene products are nonessential. J. Virol. 65:5860-5872). Since it is under the control of a viral promoter, beta-glucuronidase expression is an indirect indicator of growth and replication of HCMV in this assay. At 96 hours post-infection, the infected cell lysates are prepared (using 50 mM sodium phosphate [pH7.0]containing 0.1% Triton X-100 and 0.1% sarkosyl) and assayed for beta-glucuronidase activity using a substrate for the enzyme which when cleaved yields either a product which can be measured […] in a spectrophotometer or fluorescently in a microfluorimeter. Examples of such substrates are p-nitrophenyl-beta-D-glucuronide and methylumbelliferylglucuronide, respectively. The presence of an antiviral compound is indicated by the reduced expression of the HCMV genome resident beta-glucuronidase gene, compared to the absence of inhibitor. […] Data from this assay generated using varying amounts of inhibitor compound is also used to estimate the IC50 of an inhibitor compound.

Experiment [3] has as its system VZV strain Ellen. Description: VZV Antiviral (ELISA) Assay in human foreskin fibroblast cells. The experiment is classed as cell-based, varicella-zoster virus. The method, boiled down:
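Cell-based ELISA: infected/uninfected HFF mix (VZV Ellen, MOI <0.1) exposed to compound in DMEM/2% FBS for 3 days at 37° C. Anti-gpII monoclonal plus β-galactosidase-linked secondary, detected as 4-methylumbelliferone fluorescence; IC50 derived by comparing fluorescence with versus without compound.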

≈ marks a conversion by molar mass, not a printed value.

On to `O=C(Nc1ccc(NC(=S)Nc2ccc(F)c(Cl)c2)cc1)c1ccccc1F` [Example 922, N-{4-[3-(3-Chloro-4-fluoro-phenyl)-thioureido]-phenyl}-2-fluoro-benzamide], for which the IC50 was 1 µg/mL (≈ 2.39 µM) in experiment [1] (Human alphaherpesvirus 1, read-out: IC50 (ug/ml) HSV); more than 10 µg/mL in experiment [2] (Human betaherpesvirus 5, read-out: IC50 ug/ml HCMV, HCMV); more than 10 µg/mL in experiment [3] (Human alphaherpesvirus 3, Fibroblast, read-out: IC50 (ug/ml) VZV). Moreover, the inhibition at 10 µg/mL in experiment [3] (Human alphaherpesvirus 3, Fibroblast, read-out: % inhibition 10 ug/ml VZV, 10 ug/ml) amounted to 40%.

For the molecule `COc1cc(OC)c(NC(=S)Nc2ccc(NC(=O)c3cccc(OC(C)=O)c3)cc2)cc1Cl` [Example 253], the “IC50 (ug/ml) HSV” value in experiment [1] came to 1.2 µg/mL (≈ 2.4 µM). For the same molecule, in experiment [2], the “IC50 ug/ml HCMV” value came to 8 µg/mL (≈ 16 µM). For the same molecule, in experiment [3], the “IC50 (ug/ml) VZV” value was 6 µg/mL (≈ 12 µM) and the “% inhibition 10 ug/ml VZV” value worked out at 100%.

As for `Nc1ccc(NC(=S)Nc2ccc(NC(=O)c3ccccc3F)cc2)cc1Cl` [Example 404], the “IC50 (ug/ml) HSV” value in experiment [1] is 0.4 µg/mL (≈ 0.964 µM). The “IC50 ug/ml HCMV” value in experiment [2] was 8 µg/mL (≈ 19.3 µM). Moreover, in experiment [3], the “IC50 (ug/ml) VZV” value was more than 10 µg/mL and the “% inhibition 10 ug/ml VZV” value stood at 15%.

As to `O=C(Nc1ccc(NC(=S)Nc2ccc3scnc3c2)cc1)c1ccccc1F` [Example 484], the “IC50 (ug/ml) HSV” value in experiment [1] amounted to 0.4 µg/mL (≈ 0.947 µM). Further, the “IC50 ug/ml HCMV” value in experiment [2] was more than 10 µg/mL. In experiment [3], the “IC50 (ug/ml) VZV” value is more than 10 µg/mL and the “% inhibition 10 ug/ml VZV” value is 28%.

With `O=C(Nc1ccc(NC(=S)Nc2cc(C(F)(F)F)cc(C(F)(F)F)c2)cc1)c1ccccc1F` [Example 517], in experiment [1], the “IC50 (ug/ml) HSV” value is more than 10 µg/mL. The “IC50 ug/ml HCMV” value in experiment [2] is 1.1 µg/mL (≈ 2.19 µM). Also, in experiment [3], the “IC50 (ug/ml) VZV” value is more than 10 µg/mL and the “% inhibition 10 ug/ml VZV” value stood at 5%.

Take `Cc1ccc(C(C)NC(=S)Nc2ccc(NC(=O)c3ccccc3F)cc2)cc1` (stereo not shown) [Example 782]: the “IC50 (ug/ml) HSV” value in experiment [1] was more than 10 µg/mL. In experiment [2], the “IC50 ug/ml HCMV” value is 0.9 µg/mL (≈ 2.21 µM). Further, the “IC50 (ug/ml) VZV” value in experiment [3] was 3 µg/mL (≈ 7.36 µM).

As for `COc1ccc(C(=O)Nc2ccc(NC(=S)NC(C)c3ccc(F)cc3)cc2)cc1` (stereo not shown) [Example 754], the “IC50 (ug/ml) HSV” value in experiment [1] was more than 10 µg/mL. The “IC50 ug/ml HCMV” value in experiment [2] was more than 10 µg/mL. In addition, the “IC50 (ug/ml) VZV” value in experiment [3] stood at 0.2 µg/mL (≈ 0.472 µM).

Take `COc1cc(OC)c(NC(=S)Nc2ccc(NC(=O)c3ccccc3O)cc2)cc1Cl` [Example 139]: the “IC50 (ug/ml) HSV” value in experiment [1] amounted to 6 µg/mL (≈ 13.1 µM). Moreover, the “IC50 ug/ml HCMV” value in experiment [2] was determined as 6 µg/mL (≈ 13.1 µM). Also, in experiment [3], the “IC50 (ug/ml) VZV” value is 4 µg/mL (≈ 8.73 µM) and the “% inhibition 10 ug/ml VZV” value amounted to 95%.

On to `COc1cc(OC)c(NC(=S)Nc2ccc(NC(=O)c3ccccc3)cc2)cc1Cl` [Example 122], for which the “IC50 (ug/ml) HSV” value in experiment [1] worked out at 0.3 µg/mL (≈ 0.679 µM). For the same molecule, the “IC50 ug/ml HCMV” value in experiment [2] stood at 4 µg/mL (≈ 9.05 µM). Besides, in experiment [3], the “IC50 (ug/ml) VZV” value is more than 10 µg/mL and the “% inhibition 10 ug/ml VZV” value turned out to be 13%.

As to `CC(NC(=S)Nc1ccc(NC(=O)c2ccccc2F)cc1)c1ccccc1` (stereo not shown) [Example 589], in experiment [1], the “IC50 (ug/ml) HSV” value is more than 10 µg/mL. Besides, the “IC50 ug/ml HCMV” value in experiment [2] was determined as 7 µg/mL (≈ 17.8 µM). For the same molecule, the “IC50 (ug/ml) VZV” value in experiment [3] is 0.36 µg/mL (≈ 0.915 µM).

In the case of `COc1cc(OC)c(NC(=S)Nc2ccc(NC(=O)c3cc(F)ccc3F)cc2)cc1Cl` [Example 187], in experiment [1], the “IC50 (ug/ml) HSV” value turned out to be 0.2 µg/mL (≈ 0.418 µM). Further, the “IC50 ug/ml HCMV” value in experiment [2] was more than 10 µg/mL. Further, in experiment [3], the “IC50 (ug/ml) VZV” value is more than 10 µg/mL and the “% inhibition 10 ug/ml VZV” value stood at 53%.

In the case of `Cc1ccccc1C(=O)Nc1ccc(NC(=S)Nc2ccc(N(C)C)c(Cl)c2)cc1` [Example 346], the “IC50 (ug/ml) HSV” value in experiment [1] worked out at 6 µg/mL (≈ 13.7 µM). Besides, the “IC50 ug/ml HCMV” value in experiment [2] was 2 µg/mL (≈ 4.56 µM). Further, in experiment [3], the “IC50 (ug/ml) VZV” value is more than 10 µg/mL and the “% inhibition 10 ug/ml VZV” value was 62%.

Take `CCCCOc1ccc(NC(=S)Nc2ccc(NC(=O)c3ccccc3F)cc2)cc1Cl` [Example 809]: in experiment [1], the “IC50 (ug/ml) HSV” value is more than 10 µg/mL. Further, the “IC50 ug/ml HCMV” value in experiment [2] is more than 10 µg/mL. In addition, the “IC50 (ug/ml) VZV” value in experiment [3] is more than 7.5 µg/mL.

As for `COc1cc(OC)c(NC(=S)Nc2ccc(NC(=O)c3cccc(F)c3)cc2)cc1Cl` [Example 117], the “IC50 (ug/ml) HSV” value in experiment [1] stood at 0.3 µg/mL (≈ 0.652 µM). Besides, the “IC50 ug/ml HCMV” value in experiment [2] was found to be 3 µg/mL (≈ 6.52 µM). For the same molecule, in experiment [3], the “IC50 (ug/ml) VZV” value is more than 10 µg/mL and the “% inhibition 10 ug/ml VZV” value is given as 15%.

The values above are taken from patent US6462055B2, “Alpha-methylbenzyl-containing thiourea inhibitors of herpes viruses containing a phenylenediamine group” (Wyeth, priority 1998, dated 2002).
